≈ marks a conversion by molar mass, not a printed value.
What was measured:
[1] = tested on: C. albicans CAF2-1 strain; test: Anti-Candida activity (MIC measurement); type: cell-based; settings: CAF21STRAIN, minimum inhibitory concentration (MIC) by visual inspection, RPMI 1640, 42 to 48 hours at 35° C.
Experimental: (§1) 1. Anti-Candida Activity and Anti-Aspergillus Activity
(§2) (1) Preparation of Fungal Sample
(§3) For the C. albicans CAF2-1 strain, a fungal suspension from a standing culture for 48 hours at 30° C. in a Sabouraud dextrose liquid culture medium (SDB) was diluted with RPMI 1640 medium to adjust a fungal suspension of 1.2×10^3 cells/mL. For the A. fumigatus Tsukuba strain, −80° C. stored strain was diluted with RPMI 1640 medium to adjust to a fungal suspension of 4.5×10^3 cells/mL.
(§4) (2) Preparation of an Agent Dilution Plate
(§5) Using a U-bottomed 96-well plate, 8 samples/plate (A to H) of sample dilution solutions were prepared. On the 2nd to 12th rows were dispensed 10 μL of dimethyl sulfoxide solution. Weighed sample was dissolved in dimethyl sulfoxide to prepare a 2.5 mg/mL solution, 20 μL of this solution was added to the first row of the prepared plate, and 12 steps of two-fold step dilutions (10 μL of solution+10 μL of dimethyl sulfoxide solution) were performed on the plate. This sample dilution solution was dispensed in an amount of 1 μL into a flat-bottomed 96-well plate for MIC measurement to prepare a sample dilution plate.
(§6) (3) Inoculation of Fungal Suspension and Culture
(§7) The fungal suspension prepared in (1) was used in an amount of 99 μL/well to inoculate the flat-bottomed 96-well plate containing 1 μL/well of the test compound dilution prepared in (2), and standing culture was performed aerobically for 42 to 48 hours at 35° C.
(§8) The following representative compounds prepared in the examples were measured for anti-Candida activity and anti-Aspergillus activity by measurement method in (1).

[2] = tested on: A. fumigatus Tsukuba strain; test: Anti-Aspergillus activity (MIC measurement); type: cell-based; settings: minimum inhibitory concentration (MIC) by visual inspection, RPMI 1640, 42 to 48 hours at 35° C.
Experimental: as §1, §2, §3, §4, §5, §6, §7, §8

Structure (SMILES)	MIC [1]	MIC [2]
Nc1ncccc1-c1nnn(Cc2ccc(Oc3ccccc3)s2)n1 [Example 46, 3-(2-(5-Phenoxy-thiophen-2-ylmethyl)-2H-tetrazol-5-yl)-pyridin-2-ylamine]	0.39 µg/mL (≈ 1.11 µM)	1.56 µg/mL (≈ 4.45 µM)
Nc1ncccc1-c1ncn(Cc2ccc(OCc3ccccc3)cc2)n1 [Example 14, 3-(1-(4-Benzyloxy-benzyl)-1H-[1,2,4]triazol-3-yl)-pyridin-2-ylamine]	6.25 µg/mL (≈ 17.5 µM)	> 25 µg/mL
Nc1ccc(-c2cn(Cc3cccc(Oc4ccccc4)c3)nn2)cn1 [Example 29, 5-(1-(3-Phenoxy-benzyl)-1H-[1,2,3]triazol-4-yl)-pyridin-2-ylamine]	0.39 µg/mL (≈ 1.14 µM)	1.56 µg/mL (≈ 4.54 µM)
Nc1ncccc1-n1cc(Cc2ccc(OCc3ccccc3)cc2)nn1 [Example 12, 3-(4-(4-Benzyloxy-benzyl)-[1,2,3]triazol-1-yl)-pyridin-2-ylamine]	0.2 µg/mL (≈ 0.56 µM)	0.2 µg/mL (≈ 0.56 µM)
Nc1ncccc1-c1nnn(Cc2ccc(Oc3ccccc3)cc2)n1 [Example 35, 3-(2-(4-Phenoxy-benzyl)-2H-tetrazol-5-yl)-pyridin-2-ylamine]	1.56 µg/mL (≈ 4.53 µM)	0.78 µg/mL (≈ 2.26 µM)
Nc1ccc(-c2nnc(Cc3ccc(OCc4ccccc4)cc3)s2)c(N)n1 [Example 10]	3.13 µg/mL (≈ 8.04 µM)	25 µg/mL (≈ 64.2 µM)
Nc1ncccc1-c1nnn(Cc2ccccc2)n1 [Example 49, 3-(2-Benzyl-2H-tetrazol-5-yl)-pyridin-2-ylamine]	1.56 µg/mL (≈ 6.18 µM)	12.5 µg/mL (≈ 49.5 µM)
Nc1ccc(-c2nnn(Cc3ccc(Cc4ccc(Cl)o4)cc3)n2)c(N)n1 [Example 22, 3-(2-(4-(5-Chloro-furan-2-ylmethyl)-benzyl)-2H-tetrazol-5-yl)-pyridin-2,6-diamine]	0.39 µg/mL (≈ 1.02 µM)	1.56 µg/mL (≈ 4.09 µM)
COCc1ccc(-c2nnc(Cc3ccc(OCc4ccccc4)cc3)o2)c(N)n1 [Example 11]	6.25 µg/mL (≈ 15.5 µM)	3.13 µg/mL (≈ 7.78 µM)
CCCCOc1ccc(Cc2nnc(-c3cccnc3N)o2)cc1 [Example 45, 3-(5-(4-Butoxy-benzyl)-[1,3,4]oxadiazol-2-yl)-pyridin-2-ylamine]	6.25 µg/mL (≈ 19.3 µM)	12.5 µg/mL (≈ 38.5 µM)
Nc1ncccc1-c1noc(Cc2ccc(OCc3ccccc3)cc2)n1 [Example 13, 3-(5-(4-Benzyloxy-benzyl)-[1,2,4]-oxadiazol-3-yl)-pyridin-2-ylamine]	1.56 µg/mL (≈ 4.35 µM)	1.56 µg/mL (≈ 4.35 µM)
Nc1ncccc1-c1noc(Cc2ccc(OCc3ccccn3)cc2)n1 [Example 23]	1.56 µg/mL (≈ 4.34 µM)	6.25 µg/mL (≈ 17.4 µM)
COCc1ccc(-c2cn(Cc3ccc(Cc4ccc(Cl)o4)cc3)nn2)c(N)n1 [Example 19, 3-(1-(4-(5-Chloro-furan-2-ylmethyl)-benzyl)-1H-[1,2,3]triazol-4-yl)-6-methoxymethyl-pyridin-2-ylamine]	0.39 µg/mL (≈ 0.952 µM)	3.13 µg/mL (≈ 7.64 µM)
Nc1ncccc1-c1nnn(Cc2cccc(Oc3ccccc3)c2)n1 [Example 31, 3-(2-(3-Phenoxy-benzyl)-2H-tetrazol-5-yl)-pyridin-2-ylamine]	0.39 µg/mL (≈ 1.13 µM)	0.78 µg/mL (≈ 2.26 µM)
Nc1ncccc1-c1nnc(Cc2ccc(OCc3ccccn3)cc2)o1 [Example 24]	1.56 µg/mL (≈ 4.34 µM)	6.25 µg/mL (≈ 17.4 µM)
CCOc1ccc(Cn2nnc(-c3cccnc3N)n2)cc1 [Example 50, 3-(2-(4-Ethoxy-benzyl)-2H-tetrazol-5-yl)-pyridin-2-ylamine]	6.25 µg/mL (≈ 21.1 µM)	> 25 µg/mL
Nc1ncccc1-c1nnn(Cc2ccn(Cc3ccccc3)c2)n1 [Example 55, 3-(2-(1-Benzyl-1H-pyrrol-3-ylmethyl)-2H-tetrazol-5-yl)-pyridin-2-ylamine]	0.1 µg/mL (≈ 0.302 µM)	0.78 µg/mL (≈ 2.35 µM)
Nc1ncccc1-c1nnc(Cc2ccc(OCc3ccccc3)cc2)[nH]1 [Example 15, 3-(5-(4-Benzyloxy-benzyl)-4H-[1,2,4]triazol-3-yl)-pyridin-2-ylamine]	6.25 µg/mL (≈ 17.5 µM)	3.13 µg/mL (≈ 8.76 µM)

Structure (SMILES)	MIC [1]	MIC [2]
Nc1ncccc1-c1nnc(Cc2ccc(OCc3ccccc3)cc2)s1 [Example 8]	0.78 µg/mL (≈ 2.08 µM)	1.56 µg/mL (≈ 4.17 µM)
Nc1ncccc1-c1cn(Cc2ccc(Cc3ccc(Cl)o3)cc2)nn1 [Example 16, 3-(1-(4-(5-Chloro-furan-2-ylmethyl)-benzene)-1H-[1,2,3]triazol-4-yl)-pyridin-2-ylamine]	0.05 µg/mL (≈ 0.137 µM)	0.78 µg/mL (≈ 2.13 µM)
Nc1ncccc1-c1nnn(Cc2ccc(Cc3ccc(Cl)o3)cc2)n1 [Example 21, 3-(2-(4-(5-Chloro-furan-2-ylmethyl)-benzyl)-2H-tetrazol-5-yl)-pyridin-2-ylamine]	0.39 µg/mL (≈ 1.06 µM)	0.39 µg/mL (≈ 1.06 µM)
Nc1ccc(-c2nnn(Cc3ccc(OCc4ccccc4)cn3)n2)c(N)n1 [Example 40, 3-(2-(5-Benzyloxy-pyridin-2-ylmethyl)-2H-tetrazol-5-yl)-pyridin-2,6-diamine]	1.56 µg/mL (≈ 4.17 µM)	> 25 µg/mL
Nc1ccc(-c2cn(Cc3ccc(OCc4ccccc4)cc3)nn2)c(N)n1 [Example 4, 3-(1-(4-Benzyloxy-benzyl)-1H-[1,2,3]triazol-4-yl)-pyridin-2,6-diamine]	0.39 µg/mL (≈ 1.05 µM)	0.78 µg/mL (≈ 2.09 µM)
Nc1ncccc1-c1cn(Cc2ccc(Oc3ccccc3)cc2)nn1 [Example 32, 3-(1-(4-Phenoxy-benzyl)-1H-[1,2,3]triazol-4-yl)-pyridin-2-ylamine]	0.1 µg/mL (≈ 0.291 µM)	0.39 µg/mL (≈ 1.14 µM)
Cc1ccc(-c2cn(Cc3ccc(OCc4ccccc4)cc3)nn2)cn1 [Example 2, 5-(1-(4-Benzyloxy-benzyl)-1H-[1,2,3]triazol-4-yl)-2-methyl-pyridine]	3.13 µg/mL (≈ 8.78 µM)	1.56 µg/mL (≈ 4.38 µM)
Nc1ccc(-c2cn(Cc3ccc(OCc4ccccc4)cc3)nn2)cn1 [Example 3, 5-(1-(4-Benzyloxy-benzyl)-1H-[1,2,3]triazol-4-yl)-pyridin-2-ylamine]	1.56 µg/mL (≈ 4.36 µM)	0.78 µg/mL (≈ 2.18 µM)
COCc1ccc(-c2nnn(Cc3ccc(OCc4ccccc4)cc3)n2)c(N)n1 [Example 6, 3-(2-(4-Benzyloxy-benzyl)-2H-tetrazol-5-yl)-6-methoxymethyl-pyridin-2-ylamine]	1.56 µg/mL (≈ 3.88 µM)	1.56 µg/mL (≈ 3.88 µM)
Nc1ncccc1-c1nnn(Cc2ccc(OCc3ccccc3)s2)n1 [Example 48, 3-(2-(5-Benzyloxy-thiophen-2-ylmethyl)-2H-tetrazol-5-yl)-pyridin-2-ylamine]	0.39 µg/mL (≈ 1.07 µM)	1.56 µg/mL (≈ 4.28 µM)
Nc1ncccc1-c1cn(Cc2cccc(Oc3ccccc3)c2)nn1 [Example 28, 3-(1-(3-Phenoxy-benzyl)-1H-[1,2,3]triazol-4-yl)-pyridin-2-ylamine]	0.1 µg/mL (≈ 0.291 µM)	1.56 µg/mL (≈ 4.54 µM)
Nc1ncccc1-c1cn(Cc2ccc(OCc3ccccc3)cc2)nn1 [Example 1, 3-(1-(4-Benzyloxy-benzyl)-1H-[1,2,3]triazol-4-yl)-pyridin-2-ylamine]	0.05 µg/mL (≈ 0.14 µM)	0.2 µg/mL (≈ 0.56 µM)
Cc1ccc(-c2cn(Cc3ccc(Cc4ccc(Cl)o4)cc3)nn2)cn1 [Example 17, 5-(1-(4-(5-Chloro-furan-2-ylmethyl)-benzyl)-1H-[1,2,3]triazol-4-yl)-2-methyl-pyridine]	3.13 µg/mL (≈ 8.58 µM)	0.78 µg/mL (≈ 2.14 µM)
Nc1ncccc1-c1nnn(Cc2ccc(Oc3ccc(F)cc3)o2)n1 [Example 51, 3-(2-(5-(4-Fluoro-phenoxy)-furan-2-ylmethyl)-2H-tetrazol-5-yl)-pyridin-2-ylamine]	6.25 µg/mL (≈ 17.7 µM)	3.13 µg/mL (≈ 8.88 µM)
Nc1ncccc1-c1cn(Cc2ccc(COc3ccccc3)cn2)nn1 [Example 37, 3-(1-(5-Phenoxymethyl-pyridin-2-ylmethyl)-1H-[1,2,3]triazol-4-yl)-pyridin-2-ylamine]	0.2 µg/mL (≈ 0.558 µM)	1.56 µg/mL (≈ 4.35 µM)
Nc1ncccc1-c1cn(Cc2ccc(COc3ccccn3)cc2)nn1 [Example 26, 3-(1-(4-(Pyridin-2-yloxymethyl)-benzyl)-1H-[1,2,3]triazol-4-yl)-pyridin-2-ylamine]	0.05 µg/mL (≈ 0.14 µM)	0.39 µg/mL (≈ 1.09 µM)
Cc1ccc(Cc2cccc(Cn3nnc(-c4cccnc4N)n3)c2)s1 [Example 52, 3-(2-(3-(5-Methyl-thiophen-2-ylmethyl)-benzyl)-2H-tetrazol-5-yl)-pyridin-2-ylamine]	1.56 µg/mL (≈ 4.3 µM)	3.13 µg/mL (≈ 8.64 µM)
Nc1ccc(-c2nnn(Cc3ccc(OCc4ccccc4)cc3)n2)c(N)n1 [Example 7, 3-(2-(4-Benzyloxy-benzyl)-2H-tetrazol-5-yl)-pyridin-2,6-diamine]	0.39 µg/mL (≈ 1.04 µM)	1.56 µg/mL (≈ 4.18 µM)

Source: patent publication US8183264B2, “Pyridine derivative substituted by heteroaryl ring, and antifungal agent comprising the same” (Eisai R&D Managment Co., Ltd., priority 2006, dated 2012)
